Like-named read-outs stand apart in the source and are kept apart here.
What was measured:
human glucagon receptor = target: T1, human glucagon receptor (Homo sapiens, UniProt P47871); assay: cAMP response of HEK-293 cells stably expressing human glucagon receptor (HTRF); assay type: cell-based; conditions: Table 6; cAMP formation; read-out: EC50 hGlucagon-R
T1 construct: expressed in transfected cells; host or cells: HEK-293
Description: (§1) cAMP content of cells was determined using a kit from Cisbio Corp. (cat. no. 62AM4PEC) based on HTRF (Homogenous Time Resolved Fluorescence). For preparation, cells were split into T175 culture flasks and grown overnight to near confluency in medium (DMEM/10% FBS). Medium was then removed and cells washed with PBS lacking calcium and magnesium, followed by proteinase treatment with accutase (Sigma-Aldrich cat. no. A6964). Detached cells were washed and resuspended in assay buffer (1×HBSS; 20 mM HEPES, 0.1% BSA, 2 mM IBMX) and cellular density determined. They were then diluted to 400000 cells/ml and 25 μl-aliquots dispensed into the wells of 96-well plates. For measurement, 25 μl of test compound in assay buffer was added to the wells, followed by incubation for 30 minutes at room temperature.
(§2) Potencies of peptidic compounds at the GLP-1, glucagon and GIP receptors were determined by exposing cells expressing human glucagon receptor (hGCG R), human GIP (hGIP R) and human GLP-1 receptor (hGLP-1 R) to the listed compounds at increasing concentrations and measuring the formed cAMP as described in Methods.

human GLP-1 receptor = target: T2, human GLP-1 receptor (Homo sapiens, UniProt P43220); assay: cAMP response of HEK-293 cells stably expressing human GLP-1 receptor (HTRF); assay type: cell-based; conditions: Table 6; cAMP formation; read-out: EC50 hGLP-1R
T2 construct: expressed in transfected cells; host or cells: HEK-293
Description: as §1, §2

human GIP receptor = target: T3, human GIP receptor (Homo sapiens, UniProt P48546); assay: cAMP response of HEK-293 cells stably expressing human GIP receptor (HTRF); assay type: cell-based; conditions: Table 6; cAMP formation; read-out: EC50 hGIP-R
T3 construct: expressed in transfected cells; host or cells: HEK-293
T3 sequence (P48546 22-466): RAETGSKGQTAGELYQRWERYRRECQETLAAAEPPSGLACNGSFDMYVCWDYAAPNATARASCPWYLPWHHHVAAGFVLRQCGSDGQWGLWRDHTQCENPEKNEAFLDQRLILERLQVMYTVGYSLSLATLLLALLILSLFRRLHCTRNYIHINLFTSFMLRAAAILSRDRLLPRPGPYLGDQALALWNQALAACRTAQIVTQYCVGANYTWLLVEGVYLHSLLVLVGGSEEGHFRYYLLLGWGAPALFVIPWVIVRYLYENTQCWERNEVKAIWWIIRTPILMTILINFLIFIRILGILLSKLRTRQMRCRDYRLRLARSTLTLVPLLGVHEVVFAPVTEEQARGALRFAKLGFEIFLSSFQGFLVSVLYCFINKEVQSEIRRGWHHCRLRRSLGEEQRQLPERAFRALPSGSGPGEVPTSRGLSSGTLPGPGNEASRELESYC
Description: as §1, §2

[1] = Solubility testing of exendin-4 derivatives (HPLC-UV of supernatant); assay type: physicochemical
Description: Prior to the testing of solubility and stability of a peptide batch, its purity (HPLC-UV) was determined. […] Therefore, solutions from solid samples were prepared in different buffer systems with a concentration of 10 mg/mL compound based on the previously determined % purity. HPLC-UV was performed after 2 h of gentle agitation from the supernatant, which was obtained by 20 min of centrifugation at 4500 rpm. […] This analysis also served as starting point (t0) for the stability testing.

[2] = Stability testing in solution, 7 days at 40° C. (% remaining peptide, HPLC-UV); assay type: physicochemical
Description: After that time course, the sample was centrifuged for 20 min at 4500 rpm and 0.2 μL of the supernatant were analysed with HPLC-UV.
For determination of the amount of the remaining peptide, the peak areas of the target compound at t0 and t7 were compared, resulting in “% remaining peptide”, following the equation % remaining peptide=[(peak area peptide t7)×100]/peak area peptide t0.
The stability is expressed as “% remaining peptide”.

T1 sequence (P47871 26-477): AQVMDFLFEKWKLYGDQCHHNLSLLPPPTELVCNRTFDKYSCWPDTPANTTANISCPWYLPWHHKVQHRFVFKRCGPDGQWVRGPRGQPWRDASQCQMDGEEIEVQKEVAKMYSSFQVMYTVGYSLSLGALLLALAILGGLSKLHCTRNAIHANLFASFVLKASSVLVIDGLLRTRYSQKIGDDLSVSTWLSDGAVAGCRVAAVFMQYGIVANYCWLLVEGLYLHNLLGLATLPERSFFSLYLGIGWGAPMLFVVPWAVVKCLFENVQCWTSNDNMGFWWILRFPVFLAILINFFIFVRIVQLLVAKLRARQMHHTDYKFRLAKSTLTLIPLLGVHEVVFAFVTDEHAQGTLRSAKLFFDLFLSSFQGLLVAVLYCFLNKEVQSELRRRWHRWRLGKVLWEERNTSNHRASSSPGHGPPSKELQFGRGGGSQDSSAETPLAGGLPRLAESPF
T2 sequence (P43220 24-463): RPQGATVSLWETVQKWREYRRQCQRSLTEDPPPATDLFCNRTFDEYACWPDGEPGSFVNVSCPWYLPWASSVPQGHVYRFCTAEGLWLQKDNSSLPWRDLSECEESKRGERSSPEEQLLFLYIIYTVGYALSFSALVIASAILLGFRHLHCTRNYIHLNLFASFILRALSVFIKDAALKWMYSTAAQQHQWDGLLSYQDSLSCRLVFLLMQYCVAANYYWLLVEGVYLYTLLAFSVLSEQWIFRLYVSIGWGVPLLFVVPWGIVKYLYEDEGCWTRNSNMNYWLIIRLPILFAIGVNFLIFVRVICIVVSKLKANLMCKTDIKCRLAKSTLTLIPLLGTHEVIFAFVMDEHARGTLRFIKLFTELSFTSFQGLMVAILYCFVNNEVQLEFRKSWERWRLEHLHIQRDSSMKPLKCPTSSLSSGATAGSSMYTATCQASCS

Structure (SMILES) | EC50 (human glucagon receptor) | EC50 (human GLP-1 receptor) | EC50 (human GIP receptor) | also measured
CCCCCCCCCCCCCCCCCC(=O)N[C@@H](CCC(=O)NCCCC[C@H](NC(=O)[C@H](CCC(N)=O)NC(=O)[C@H](CCCCN)NC(=O)[C@H](CO)NC(=O)[C@H](CC(C)C)NC(=O)[C@H](CC(=O)O)NC(=O)[C@H](CO)NC(=O)[C@@H](NC(=O)[C@H](Cc1ccccc1)NC(=O)[C@@H](NC(=O)CNC(=O)[C@H](Cc1c[nH]cn1)NC(=O)C(C)(C)NC(=O)[C@@H](N)Cc1c[nH]cn1)[C@@H](C)O)[C@@H](C)O)C(=O)N[C@@H](CCC(=O)O)C(=O)N[C@@H](CCC(=O)O)C(=O)N[C@@H](CCC(=O)O)C(=O)N[C@@H](C)C(=O)N[C@H](C(=O)N[C@@H](CCCNC(=N)N)C(=O)N[C@@H](CC(C)C)C(=O)N[C@@H](Cc1ccccc1)C(=O)N[C@H](C(=O)N[C@@H](CCC(=O)O)C(=O)N[C@@H](Cc1c[nH]c2ccccc12)C(=O)N[C@@H](CC(C)C)C(=O)N[C@@H](CCCCN)C(=O)N[C@@H](C)C(=O)NCC(=O)NCC(=O)N1CCC[C@H]1C(=O)N[C@@H](CO)C(=O)N[C@@H](CO)C(=O)NCC(=O)N[C@@H](C)C(=O)N1CCC[C@H]1C(=O)N1CCC[C@H]1C(=O)N1CCC[C@H]1C(=O)N[C@@H](CO)C(N)=O)[C@@H](C)CC)C(C)C)C(=O)O [compound 7] | 0.0058 nM | 0.0065 nM | 0.0256 nM | 
CCCCCCCCCCCCCCCCCC(=O)N[C@@H](CCC(=O)NCCCC[C@H](NC(=O)[C@H](CCC(N)=O)NC(=O)[C@H](CCCCN)NC(=O)[C@H](CO)NC(=O)[C@H](CC(C)C)NC(=O)[C@H](CC(=O)O)NC(=O)[C@H](CO)NC(=O)[C@@H](NC(=O)[C@H](Cc1ccccc1)NC(=O)[C@@H](NC(=O)CNC(=O)[C@H](Cc1c[nH]cn1)NC(=O)[C@@H](CO)NC(=O)[C@@H](N)Cc1c[nH]cn1)[C@@H](C)O)[C@@H](C)O)C(=O)N[C@@H](CCC(=O)O)C(=O)N[C@@H](CCC(=O)O)C(=O)N[C@@H](CCC(=O)O)C(=O)N[C@@H](C)C(=O)N[C@H](C(=O)N[C@@H](CCCNC(=N)N)C(=O)N[C@@H](CC(C)C)C(=O)N[C@@H](Cc1ccccc1)C(=O)N[C@H](C(=O)N[C@@H](CCC(=O)O)C(=O)N[C@@H](Cc1c[nH]c2ccccc12)C(=O)N[C@@H](CC(C)C)C(=O)N[C@@H](CCCCN)C(=O)N[C@@H](C)C(=O)NCC(=O)NCC(=O)N1CCC[C@H]1C(=O)N[C@@H](CO)C(=O)N[C@@H](CO)C(=O)NCC(=O)N[C@@H](C)C(=O)N1CCC[C@H]1C(=O)N1CCC[C@H]1C(=O)N1CCC[C@H]1C(=O)N[C@@H](CO)C(N)=O)[C@@H](C)CC)C(C)C)C(=O)O [compound 9] |  |  |  | solubility at 2 h ([1]; pH 4.5): > 5000 µg/mL; solubility at 2 h ([1]; pH 7.4): > 5000 µg/mL
CCCCCCCCCCCCCCCCCC(=O)N[C@@H](CCC(=O)NCCCC[C@H](NC(=O)[C@H](CCC(N)=O)NC(=O)[C@H](CCCCN)NC(=O)[C@H](CO)NC(=O)[C@H](CC(C)C)NC(=O)[C@H](CC(=O)O)NC(=O)[C@H](CO)NC(=O)[C@@H](NC(=O)[C@H](Cc1ccccc1)NC(=O)[C@@H](NC(=O)CNC(=O)[C@H](Cc1c[nH]cn1)NC(=O)[C@H](CO)NC(=O)[C@@H](N)Cc1c[nH]cn1)[C@@H](C)O)[C@@H](C)O)C(=O)N[C@@H](CCC(=O)O)C(=O)N[C@@H](CCC(=O)O)C(=O)N[C@@H](CCC(=O)O)C(=O)N[C@@H](C)C(=O)N[C@H](C(=O)N[C@@H](CCCNC(=N)N)C(=O)N[C@@H](CC(C)C)C(=O)N[C@@H](Cc1ccccc1)C(=O)N[C@H](C(=O)N[C@@H](CCC(=O)O)C(=O)N[C@@H](Cc1c[nH]c2ccccc12)C(=O)N[C@@H](CC(C)C)C(=O)N[C@@H](CCCCN)C(=O)N[C@@H](C)C(=O)NCC(=O)NCC(=O)N1CCC[C@H]1C(=O)N[C@@H](CO)C(=O)N[C@@H](CO)C(=O)NCC(=O)N[C@@H](C)C(=O)N1CCC[C@H]1C(=O)N1CCC[C@H]1C(=O)N1CCC[C@H]1C(=O)N[C@@H](CO)C(N)=O)[C@@H](C)CC)C(C)C)C(=O)O [compound 10] |  |  |  | Stability (pH 4.5), % remaining peptide ([2]; pH 4.5, 7 days at 40° C. in solution): 92.7%; Stability (pH 7.4), % remaining peptide ([2]; pH 7.4, 7 days at 40° C. in solution): 93.4%; solubility at 2 h ([1]; pH 4.5, target concentration 10 mg/ml, 2 h agitation, read-out: Solubility (pH 4.5)): > 5000 µg/mL; solubility at 2 h ([1]; pH 7.4, target concentration 10 mg/ml, 2 h agitation, read-out: Solubility (pH 7.4)): > 5000 µg/mL
CCCCCCCCCCCCCCCC(=O)N[C@@H](CCC(=O)N[C@@H](CCC(=O)NCCCC[C@H](NC(=O)[C@H](CCC(N)=O)NC(=O)[C@H](CCCCN)NC(=O)[C@H](CO)NC(=O)[C@H](CC(C)C)NC(=O)[C@H](CC(=O)O)NC(=O)[C@H](CO)NC(=O)[C@@H](NC(=O)[C@H](Cc1ccccc1)NC(=O)[C@@H](NC(=O)CNC(=O)[C@H](Cc1c[nH]cn1)NC(=O)[C@@H](CO)NC(=O)[C@@H](N)Cc1c[nH]cn1)[C@@H](C)O)[C@@H](C)O)C(=O)N[C@@H](CCC(=O)O)C(=O)N[C@@H](CCC(=O)O)C(=O)N[C@@H](CCC(=O)O)C(=O)N[C@@H](C)C(=O)N[C@H](C(=O)N[C@@H](CCCNC(=N)N)C(=O)N[C@@H](CC(C)C)C(=O)N[C@@H](Cc1ccccc1)C(=O)N[C@H](C(=O)N[C@@H](CCC(=O)O)C(=O)N[C@@H](Cc1c[nH]c2ccccc12)C(=O)N[C@@H](CC(C)C)C(=O)N[C@@H](CCCCN)C(=O)N[C@@H](C)C(=O)NCC(=O)NCC(=O)N1CCC[C@H]1C(=O)N[C@@H](CO)C(=O)N[C@@H](CO)C(=O)NCC(=O)N[C@@H](C)C(=O)N1CCC[C@H]1C(=O)N1CCC[C@H]1C(=O)N1CCC[C@H]1C(=O)N[C@@H](CO)C(N)=O)[C@@H](C)CC)C(C)C)C(=O)O)C(=O)O [compound 13] | 0.0225 nM |  | 0.079 nM | 
CCCCCCCCCCCCCCCC(=O)N[C@@H](CCC(=O)NCCCC[C@H](NC(=O)[C@H](CCC(N)=O)NC(=O)[C@H](CCCCN)NC(=O)[C@H](CO)NC(=O)[C@H](CC(C)C)NC(=O)[C@H](CC(=O)O)NC(=O)[C@H](CO)NC(=O)[C@@H](NC(=O)[C@H](Cc1ccccc1)NC(=O)[C@@H](NC(=O)CNC(=O)[C@H](Cc1c[nH]cn1)NC(=O)[C@@H](CO)NC(=O)[C@@H](N)Cc1c[nH]cn1)[C@@H](C)O)[C@@H](C)O)C(=O)N[C@@H](CCC(=O)O)C(=O)N[C@@H](CCC(=O)O)C(=O)N[C@@H](CCC(=O)O)C(=O)N[C@@H](C)C(=O)N[C@H](C(=O)N[C@@H](CCCNC(=N)N)C(=O)N[C@@H](CC(C)C)C(=O)N[C@@H](Cc1ccccc1)C(=O)N[C@H](C(=O)N[C@@H](CCC(=O)O)C(=O)N[C@@H](Cc1c[nH]c2ccccc12)C(=O)N[C@@H](CC(C)C)C(=O)N[C@@H](CCCCN)C(=O)N[C@@H](C)C(=O)NCC(=O)NCC(=O)N1CCC[C@H]1C(=O)N[C@@H](CO)C(=O)N[C@@H](CO)C(=O)NCC(=O)N[C@@H](C)C(=O)N1CCC[C@H]1C(=O)N1CCC[C@H]1C(=O)N1CCC[C@H]1C(=O)N[C@@H](CO)C(N)=O)[C@@H](C)CC)C(C)C)C(=O)O [compound 14] | 0.0584 nM | 0.0041 nM | 0.437 nM | 
CCCCCCCCCCCCCCCC(=O)N[C@@H](CCC(=O)N[C@@H](CCC(=O)NCCCC[C@H](NC(=O)[C@H](CCC(N)=O)NC(=O)[C@H](CCCCN)NC(=O)[C@H](CO)NC(=O)[C@H](CC(C)C)NC(=O)[C@H](CC(=O)O)NC(=O)[C@H](CO)NC(=O)[C@@H](NC(=O)[C@H](Cc1ccccc1)NC(=O)[C@@H](NC(=O)CNC(=O)[C@H](CCC(N)=O)NC(=O)C(C)(C)NC(=O)[C@@H](N)Cc1c[nH]cn1)[C@@H](C)O)[C@@H](C)O)C(=O)N[C@@H](CCC(=O)O)C(=O)N[C@@H](CCC(=O)O)C(=O)N[C@@H](CCC(=O)O)C(=O)N[C@@H](C)C(=O)N[C@H](C(=O)N[C@@H](CCCNC(=N)N)C(=O)N[C@@H](CC(C)C)C(=O)N[C@@H](Cc1ccccc1)C(=O)N[C@H](C(=O)N[C@@H](CCC(=O)O)C(=O)N[C@@H](Cc1c[nH]c2ccccc12)C(=O)N[C@@H](CC(C)C)C(=O)N[C@@H](CCCCN)C(=O)N[C@@H](C)C(=O)NCC(=O)NCC(=O)N1CCC[C@H]1C(=O)N[C@@H](CO)C(=O)N[C@@H](CO)C(=O)NCC(=O)N[C@@H](C)C(=O)N1CCC[C@H]1C(=O)N1CCC[C@H]1C(=O)N1CCC[C@H]1C(=O)N[C@@H](CO)C(N)=O)[C@@H](C)CC)C(C)C)C(=O)O)C(=O)O [compound 24] |  | 0.0045 nM |  | 

Reference: US9771406B2, “Peptidic dual GLP-1/glucagon receptor agonists derived from exendin-4” (priority 2014, dated 2017)
